From US20070281992A1, “COMBINATION OF GYRASE B INHIBITORS AND PROTEIN SYNTHESIS INHIBITORS AND USES THEREOF” (priority 2006, published 2007)
Where two headings read alike, the source gives them in different places.

Key:
[1] = tested on: Methicillin-Resistant Staphylococcus aureus Isolates; test: MIC assay (NCCLS broth dilution), MRSA clinical isolates; assay type: cell-based; details: for MIC: read-out: Minimal Inhibitory Concentration
Description: (§1) Antibiotics: novobiocin, tetracycline, minocycline, oxacillin, and vancomycin were all purchased from Sigma-Aldrich. Linezolid was obtained from Pfizer, Inc. Novobiocin/tetracycline and novobiocin/minocycline were tested in a 2.5:1 ratio to mimic the serum levels. (Vavra, J. J., 1967, Development of resistance to novobiocin, tetracycline, and novobiocin-tetracycline combinations in Staphylococcus aureus populations, J. Bacteriol 93(3):801). Compounds were tested across a concentration range consisting of 11 two-fold serial dilutions of test agent.
(§2) Stock solutions were prepared in sterile deionized water; novobiocin stock concentration was 1600 μg/mL and all other drugs stock solutions were prepared at 640 μg/mL. The stock solutions were allowed to sit at room temperature for one hour to auto-sterilize prior to use in the test. All compounds were in solution in water. The control agent was vancomycin hydrochloride, Sigma Chemical Lot # 015K0825.
(§3) The test organisms for the assay were 52 MSSA, 52 MRSA, 8 VISA, 7 VISE, and 3 LRSA isolates. Quality control strains included Staphylococcus aureus 0100 (ATCC 29213) and Enterococcus faecalis (ATCC 29212).
(§4) The MIC assay was performed according to published NCCLS guidelines. (National Committee for Clinical Laboratory Standards, Methods for Dilution Antimicrobial Susceptibility Tests for Bacteria that Grow Aerobically; Approved Standard-Sixth Edition, NCCLS Document M7-A6 [ISBN 1-56238-486-4], NCCLS, 940 West Valley Road, Suite 1400, Wayne, Pa. 19087-1898 USA, 2003). The test medium was Mueller Hinton II Broth for all organisms.

[2] = tested on: Staphylococcus aureus 0100 (ATCC 29213); test: MIC assay, quality control strain S. aureus ATCC 29213; assay type: cell-based; details: ATCC29213, S. aureus ATCC 29213, repeat runs 22FEB06-09MAR06, combinations at 2.5:1, read-out: Minimal Inhibitory Concentration, quality control
Description: as §1, §2, §3, §4

[3] = tested on: Enterococcus faecalis (ATCC 29212); test: MIC assay, quality control strain E. faecalis ATCC 29212; assay type: cell-based; details: ATCC29212, E. faecalis ATCC 29212, repeat runs 22FEB06-09MAR06, combinations at 2.5:1, read-out: Minimal Inhibitory Concentration, quality control
Description: as §1, §2, §3, §4

[4] = tested on: Staphylococcus aureus 0100 (ATCC 29213); details: S. aureus ATCC 29213; accepted quality control range; cited from earlier work
[5] = tested on: Enterococcus faecalis (ATCC 29212); details: E. faecalis ATCC 29212; accepted quality control range; cited from earlier work
[6] = Staphylococcus aureus, 52 MRSA isolates, combinations at 2.5:1, given as NB/partner

In the case of CC(=O)NC[C@H]1CN(c2ccc(N3CCOCC3)c(F)c2)C(=O)O1 [LZD, linezolid], the “MIC Range” value ([1]; 52 MRSA isolates, combinations at 2.5:1, given as NB/partner) was 2 to 4 µg/mL, the MIC ([1]; Staphylococcus aureus, MRSA isolate 757, 24FEB06) was 4 µg/mL and the MIC ([1]; Staphylococcus aureus, MRSA isolate 758, 03MAR06) was 4 µg/mL. The MIC ([1]; Staphylococcus aureus, MRSA isolate 758, 24FEB06) was 4 µg/mL, the MIC ([1]; Staphylococcus aureus, MRSA isolate 760, 03MAR06) was 2 µg/mL and the MIC ([1]; Staphylococcus aureus, MRSA isolate 760, 24FEB06) was 4 µg/mL. It also gave an MIC ([1]; Staphylococcus aureus, MRSA isolate 763, 22FEB06) of 4 µg/mL, an MIC ([1]; Staphylococcus aureus, MRSA isolate 765, 22FEB06) of 4 µg/mL and an MIC ([1]; Staphylococcus aureus, MRSA isolate 766, 22FEB06) of 4 µg/mL. It also gave an MIC ([1]; Staphylococcus aureus, MRSA isolate 767, 22FEB06) of 2 µg/mL, an MIC ([1]; Staphylococcus aureus, MRSA isolate 768, 22FEB06) of 2 µg/mL and an MIC ([1]; Staphylococcus aureus, MRSA isolate 769, 22FEB06) of 2 µg/mL. It also gave an MIC ([1]; Staphylococcus aureus, MRSA isolate 770, 22FEB06) of 2 µg/mL, an MIC ([1]; Staphylococcus aureus, MRSA isolate 771, 22FEB06) of 2 µg/mL and an MIC ([1]; Staphylococcus aureus, MRSA isolate 772, 22FEB06) of 2 µg/mL. The MIC ([1]; Staphylococcus aureus, MRSA isolate 773, 24FEB06) was 2 µg/mL, the MIC ([1]; Staphylococcus aureus, MRSA isolate 774, 24FEB06) was 2 µg/mL and the MIC ([1]; Staphylococcus aureus, MRSA isolate 775, 24FEB06) was 4 µg/mL. For the same compound, the MIC ([1]; Staphylococcus aureus, MRSA isolate 776, 24FEB06) was 2 µg/mL, the MIC ([1]; Staphylococcus aureus, MRSA isolate 777, 24FEB06) was 2 µg/mL and the MIC ([1]; Staphylococcus aureus, MRSA isolate 778, 24FEB06) was 2 µg/mL. For the same compound, the MIC ([1]; Staphylococcus aureus, MRSA isolate 886, 24FEB06) was 2 µg/mL, the MIC ([1]; Staphylococcus aureus, MRSA isolate 887, 24FEB06) was 4 µg/mL and the MIC ([1]; Staphylococcus aureus, MRSA isolate 888, 24FEB06) was 4 µg/mL. For the same compound, the MIC ([1]; Staphylococcus aureus, MRSA isolate 889, 24FEB06) was 4 µg/mL, the MIC ([1]; Staphylococcus aureus, MRSA isolate 1004, 24FEB06) was 4 µg/mL and the MIC ([1]; Staphylococcus aureus, MRSA isolate 1010, 22FEB06) was 2 µg/mL. For the same compound, the MIC ([1]; Staphylococcus aureus, MRSA isolate 1012, 22FEB06) was 2 µg/mL, the MIC ([1]; Staphylococcus aureus, MRSA isolate 1013, 22FEB06) was 2 µg/mL and the MIC ([1]; Staphylococcus aureus, MRSA isolate 1014, 22FEB06) was 2 µg/mL. For the same compound, the MIC ([1]; Staphylococcus aureus, MRSA isolate 1015, 22FEB06) was 2 µg/mL, the MIC ([1]; Staphylococcus aureus, MRSA isolate 1016, 22FEB06) was 2 µg/mL and the MIC ([1]; Staphylococcus aureus, MRSA isolate 1017, 22FEB06) was 2 µg/mL. For the same compound, the MIC ([1]; Staphylococcus aureus, MRSA isolate 1021, 22FEB06) was 2 µg/mL, the MIC ([1]; Staphylococcus aureus, MRSA isolate 1022, 22FEB06) was 2 µg/mL and the MIC ([1]; Staphylococcus aureus, MRSA isolate 1023, 22FEB06) was 2 µg/mL. It also gave an MIC ([1]; Staphylococcus aureus, MRSA isolate 1024, 22FEB06) of 2 µg/mL, an MIC ([1]; Staphylococcus aureus, MRSA isolate 1025, 22FEB06) of 2 µg/mL and an MIC ([1]; Staphylococcus aureus, MRSA isolate 1135, 22FEB06) of 2 µg/mL. For the same compound, the MIC ([1]; Staphylococcus aureus, MRSA isolate 1136, 22FEB06) was 4 µg/mL, the MIC ([1]; Staphylococcus aureus, MRSA isolate 1137, 22FEB06) was 2 µg/mL and the MIC ([1]; Staphylococcus aureus, MRSA isolate 1138, 22FEB06) was 4 µg/mL. For the same compound, the MIC ([1]; Staphylococcus aureus, MRSA isolate 1222, 03MAR06) was 2 µg/mL, the MIC ([1]; Staphylococcus aureus, MRSA isolate 1222, 24FEB06) was 2 µg/mL and the MIC ([1]; Staphylococcus aureus, MRSA isolate 1653, 03MAR06) was 2 µg/mL. It also gave an MIC ([1]; Staphylococcus aureus, MRSA isolate 1658, 03MAR06) of 2 µg/mL, an MIC ([1]; Staphylococcus aureus, MRSA isolate 1659, 03MAR06) of 2 µg/mL and an MIC ([1]; Staphylococcus aureus, MRSA isolate 1661, 03MAR06) of 4 µg/mL. For the same compound, the MIC ([1]; Staphylococcus aureus, MRSA isolate 1729, 03MAR06) was 2 µg/mL, the MIC ([1]; Staphylococcus aureus, MRSA isolate 1730, 24FEB06) was 4 µg/mL and the MIC ([1]; Staphylococcus aureus, MRSA isolate 2009, 24FEB06) was 2 µg/mL. It also gave an MIC ([1]; Staphylococcus aureus, MRSA isolate 2010, 24FEB06) of 2 µg/mL, an MIC ([1]; Staphylococcus aureus, MRSA isolate 2011, 24FEB06) of 4 µg/mL and an MIC50 [1, 6] of 2 µg/mL. For the same compound, the MIC90 [1, 6] was 4 µg/mL, the MIC [2] was 4 µg/mL and the MIC [3] was 2 µg/mL. For the same compound, the “CLSI QC Range (MIC)” value [4] was 1 to 4 µg/mL and the “CLSI QC Range (MIC)” value [5] was 1 to 4 µg/mL.
